Measured values as given in patent publication US20120214862A1, “MODULATION OF FACTOR 7 EXPRESSION” (ISIS Pharmaceuticals, Inc., priority 2009, published 2012).
In the oligonucleotide strings, read from the 5' end, every base follows the letter of its sugar. An asterisk marks phosphorothioate; unmarked linkages are phosphodiester. Other units and linkages are bracketed, terminal groups are in braces. A string of capitals states the bases alone. e = 2'-O-(2-methoxyethyl) (MOE); [5mC] = 5-methylcytosine; d = 2'-deoxy (DNA)

Test system: human Factor 7 mRNA
Assay: Inhibition of human Factor 7 mRNA by 2-10-2 MOE shortmers in HepB3 cells, electroporation, 1,000 nM
Format: cell-based
Conditions: electroporation, 1,000 nM oligonucleotide, approximately 24 hours, relative to untreated control cells
Source text: Short antisense oligonucleotides (shortmers) were designed to target a Factor 7 nucleic acid. The shortmers in Table 17 were designed as 2-10-2 MOE gapmers. The gapmers are 14 nucleotides in length, wherein the central gap segment is comprised of 10 2′-deoxynucleotides and is flanked on both sides (in the 5′ and 3′ directions) by wings comprising 2 nucleotides each. Each nucleotide in the 5′ wing segment and each nucleotide in the 3′ wing segment has a 2′-MOE modification. The internucleoside linkages throughout each gapmer are phosphorothioate (P═S) linkages. All cytidine residues throughout each gapmer are 5-methylcytidines.
Shortmers were evaluated for their ability to reduce human Factor 7 mRNA in HepB3 cells and compared with one 5-10-5 chimeric oligonucleotide from Table 16, ISIS 407939. HepB3 cells at a density of 20,000 cells per well in a 96-well plate were transfected using electroporation with 1,000 nM of antisense oligonucleotide. After a treatment period of approximately 24 hours, RNA was isolated from the cells and Factor 7 mRNA levels were measured by real-time RT-PCR, as described herein. Factor 7 mRNA levels were adjusted according to total RNA content as measured by RIBOGREEN®. Results are presented in Table 17 as percent inhibition of Factor 7 mRNA, relative to untreated control cells. ISIS 407939 is the first oligonucleotide in […] to which the shortmers were compared, and is marked by an asterisk (*).

Substance | % inhibition of human Factor 7 mRNA
435482 (antisense eT*eG*dG*dG*dT*d[5mC]*dA*dT*d[5mC]*dA*dG*d[5mC]*e[5mC]*eG) [compound 435482] | 62%
435653 (antisense eA*eT*d[5mC]*dA*dG*d[5mC]*dT*dG*dG*dT*d[5mC]*dA*eT*e[5mC]) [compound 435653] | 32%
435684 (antisense eA*eG*d[5mC]*dA*dG*d[5mC]*dG*d[5mC]*dG*dA*dT*dG*eT*e[5mC]) [compound 435684] | 56%
435823 (antisense eT*eG*dA*dG*dT*d[5mC]*d[5mC]*d[5mC]*dA*dG*dG*d[5mC]*eT*eG) [compound 435823] | 41%
435676 (antisense eG*eA*dT*dT*dT*dT*dG*dT*d[5mC]*dG*dA*dA*eA*e[5mC]) [compound 435676] | 11%
435845 (antisense eG*e[5mC]*dT*d[5mC]*dA*dT*dG*dG*d[5mC]*dA*dG*dA*e[5mC]*eA) [compound 435845] | 21%
435687 (antisense eA*eT*dG*dG*dT*d[5mC]*dA*dG*dT*dG*dA*dG*eG*eA) [compound 435687] | 7%
435821 (antisense eA*eG*dT*d[5mC]*dA*dG*dT*dA*d[5mC]*dA*dG*dA*e[5mC]*eA) [compound 435821] | 0%
435795 (antisense eA*e[5mC]*dA*d[5mC]*d[5mC]*d[5mC]*dG*dA*dG*dG*dT*dT*e[5mC]*eA) [compound 435795] | 66%
435746 (antisense eA*eT*dT*dG*dA*d[5mC]*dA*dA*dG*dG*dG*d[5mC]*eT*eG) [compound 435746] | 32%
435682 (antisense eG*eG*dA*dT*dG*dA*dT*dG*dA*d[5mC]*d[5mC]*dT*eG*e[5mC]) [compound 435682] | 36%
435691 (antisense e[5mC]*eA*dG*d[5mC]*d[5mC]*dG*d[5mC]*dT*dG*dA*d[5mC]*d[5mC]*eA*eA) [compound 435691] | 25%
435726 (antisense eG*e[5mC]*dA*dA*dT*dG*dA*dA*dG*dG*d[5mC]*dA*eG*eA) [compound 435726] | 26%
435502 (antisense eG*eT*dA*d[5mC]*dT*dG*dG*dG*dA*dG*dA*d[5mC]*e[5mC]*e[5mC]) [compound 435502] | 69%
435801 (antisense e[5mC]*eG*dG*dT*dT*dG*dG*d[5mC]*d[5mC]*dA*dG*dG*e[5mC]*e[5mC]) [compound 435801] | 38%
435688 (antisense eA*e[5mC]*d[5mC]*dA*d[5mC]*dA*dT*dG*dG*dT*d[5mC]*dA*eG*eT) [compound 435688] | 0%
435757 (antisense eT*eG*d[5mC]*d[5mC]*dT*dG*dA*dG*dT*dG*d[5mC]*d[5mC]*e[5mC]*e[5mC]) [compound 435757] | 51%
435737 (antisense eG*eT*dG*d[5mC]*dA*dG*d[5mC]*d[5mC]*d[5mC]*dG*dG*d[5mC]*eA*e[5mC]) [compound 435737] | 70%
435685 (antisense eA*eG*dG*dA*d[5mC]*d[5mC]*dA*d[5mC]*dG*dG*dG*d[5mC]*eT*eG) [compound 435685] | 40%
435488 (antisense e[5mC]*eA*dG*dT*d[5mC]*d[5mC]*dT*dG*dG*dG*dT*d[5mC]*eA*eT) [compound 435488] | 17%
435736 (antisense eA*eT*dG*d[5mC]*dA*dT*dG*dG*dT*dG*dA*dT*eG*e[5mC]) [compound 435736] | 50%

Substance | % inhibition of human Factor 7 mRNA
435722 (antisense eT*eG*dG*dG*d[5mC]*dT*dT*dG*dG*d[5mC]*dT*dG*eA*eA) [compound 435722] | 50%
435739 (antisense e[5mC]*eA*dT*d[5mC]*dT*d[5mC]*dA*dG*dA*dG*dG*dA*eT*eG) [compound 435739] | 5%
435500 (antisense eA*e[5mC]*dT*dG*dG*dG*dA*dG*dA*d[5mC]*d[5mC]*d[5mC]*eT*eG) [compound 435500] | 49%
435648 (antisense eG*eA*dA*dG*d[5mC]*dA*dG*dA*dT*dA*dT*dA*eG*eG) [compound 435648] | 0%
435660 (antisense e[5mC]*e[5mC]*dG*dT*d[5mC]*dT*dG*d[5mC]*d[5mC]*dA*dG*d[5mC]*eA*eG) [compound 435660] | 58%
435683 (antisense eA*eT*dG*dT*d[5mC]*dG*dT*dG*dG*dT*dT*dG*eG*eT) [compound 435683] | 3%
435492 (antisense eA*e[5mC]*d[5mC]*d[5mC]*dT*dG*dG*dT*dG*dT*dA*d[5mC]*eA*e[5mC]) [compound 435492] | 45%
435646 (antisense eT*eA*dG*dG*dA*d[5mC]*dT*dG*dG*dA*dG*d[5mC]*eT*eG) [compound 435646] | 13%
435717 (antisense eT*eG*dA*dG*d[5mC]*dT*dT*dT*dT*dG*d[5mC]*dA*eG*e[5mC]) [compound 435717] | 0%
435807 (antisense e[5mC]*eA*dG*dT*dA*d[5mC]*dT*dT*d[5mC]*d[5mC]*d[5mC]*dA*e[5mC]*eG) [compound 435807] | 35%
435723 (antisense eG*e[5mC]*d[5mC]*dA*dG*d[5mC]*dA*dG*dA*dT*d[5mC]*dA*e[5mC]*eG) [compound 435723] | 68%
435785 (antisense eA*eG*d[5mC]*dT*dT*d[5mC]*dT*d[5mC]*dA*d[5mC]*d[5mC]*dA*e[5mC]*eG) [compound 435785] | 46%
435836 (antisense e[5mC]*eT*dA*dG*dG*dT*d[5mC]*dT*dG*d[5mC]*dA*dG*eG*eG) [compound 435836] | 41%
435496 (antisense eG*eG*dA*dG*dA*d[5mC]*d[5mC]*d[5mC]*dT*dG*dG*dT*eG*eT) [compound 435496] | 47%
435729 (antisense eA*e[5mC]*dA*dG*d[5mC]*dA*d[5mC]*dA*d[5mC]*dA*dT*dG*eG*eA) [compound 435729] | 30%
435778 (antisense eG*e[5mC]*dT*dA*d[5mC]*dT*dG*dG*dG*d[5mC]*d[5mC]*dA*e[5mC]*eG) [compound 435778] | 49%
435652 (antisense e[5mC]*eT*dG*dG*dT*d[5mC]*dA*dT*d[5mC]*d[5mC]*dT*dT*eG*eT) [compound 435652] | 48%
435827 (antisense eT*e[5mC]*dA*dG*dA*dA*dA*dG*dA*dT*dG*d[5mC]*eA*eG) [compound 435827] | 5%
435678 (antisense eA*eG*dG*dT*d[5mC]*dG*dT*dG*d[5mC]*dT*d[5mC]*dG*e[5mC]*e[5mC]) [compound 435678] | 67%
435657 (antisense eG*e[5mC]*dA*dG*dT*dA*d[5mC]*dT*dG*d[5mC]*dT*d[5mC]*eA*e[5mC]) [compound 435657] | 69%
